Earlier results as cited in patent US20060063794A1, “Method of attenuating graft rejection” (Fujisawa Pharmaceutical Co., Ltd., priority 2004, published 2006).

Legend:
[1] = MMF 2 g/day in addition to Tacrolimus and corticosteroid; cited from earlier work
[2] = system: rat cardiac allografts; details: rats, 20 mg/kg for ten days; cited from earlier work

SMILES | AR rate [1] [%] | Prolongation of graft survival [2]
COc1c(C)c2c(c(O)c1C/C=C(\C)CCC(=O)OCCN1CCOCC1)C(=O)OC2 [MMF] | 7.1 | –
N#Cc1ccc(NC(=O)C(C#N)C(=O)C2CC2)cc1 (centres unmarked) [MNA 279, reference compound] | – | about two
